Results from US11396510B2, “GABAA receptor ligand” (Saniona A/S, priority 2018, dated 2022).
“Also recorded” adds a separate entry of the source.

Key:
[1] = tested on: male Sprague Dawley (SD) rats; assay: Rotarod performance in male SD rats; conditions: 10 mg/kg per oral, 60 minutes before test
Procedure: Rats were trained on the rota rod for two days at 4-40 rpm for 5 min before evaluating the drug effects on the 3rd day.
Male SD rats (150-180 grams, NTac:SD, Taconic, Denmark)
The rats were trained on an accelerating rotarod (4-40 rpm, PanLab), one trial of 5 minutes per day, for two days prior to drug testing. Only rats that were able to stay on the rotating rod for more than 90 seconds after two days of training were included in the study. At the day of testing, the rats were placed on the rotating rod, accelerating with a speed of 4-40 rpm/5 minutes with the minimum time possible to spend on the rod designated as 0 s, and the maximum time spent on the rod set at 300 s.

[2] = target: T1, α1β2γ2 GABAA receptors expressed in Xenopus laevis oocytes (Homo sapiens, UniProt P14867+P18507); assay: Oocyte two-electrode voltage clamp electrophysiology, α1β2γ2; format: cell-based; conditions: GABA at EC10-20, normalized to diazepam
T1 construct: expressed in transfected cells; host or cells: Xenopus laevis oocytes injected with cRNA
T1 sequence (P14867 28-456): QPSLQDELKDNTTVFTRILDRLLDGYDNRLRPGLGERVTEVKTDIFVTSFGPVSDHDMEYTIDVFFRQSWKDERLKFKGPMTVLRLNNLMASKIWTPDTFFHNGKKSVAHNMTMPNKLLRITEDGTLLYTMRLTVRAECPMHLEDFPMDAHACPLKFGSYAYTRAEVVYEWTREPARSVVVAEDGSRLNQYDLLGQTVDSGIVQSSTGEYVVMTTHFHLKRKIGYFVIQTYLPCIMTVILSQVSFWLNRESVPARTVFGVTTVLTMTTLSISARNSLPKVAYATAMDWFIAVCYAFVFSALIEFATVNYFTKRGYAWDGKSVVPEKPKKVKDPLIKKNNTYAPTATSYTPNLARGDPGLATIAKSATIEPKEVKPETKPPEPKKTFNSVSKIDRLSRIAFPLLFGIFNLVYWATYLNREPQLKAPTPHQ
T1 sequence (P47870 25-512 partner limits assumed): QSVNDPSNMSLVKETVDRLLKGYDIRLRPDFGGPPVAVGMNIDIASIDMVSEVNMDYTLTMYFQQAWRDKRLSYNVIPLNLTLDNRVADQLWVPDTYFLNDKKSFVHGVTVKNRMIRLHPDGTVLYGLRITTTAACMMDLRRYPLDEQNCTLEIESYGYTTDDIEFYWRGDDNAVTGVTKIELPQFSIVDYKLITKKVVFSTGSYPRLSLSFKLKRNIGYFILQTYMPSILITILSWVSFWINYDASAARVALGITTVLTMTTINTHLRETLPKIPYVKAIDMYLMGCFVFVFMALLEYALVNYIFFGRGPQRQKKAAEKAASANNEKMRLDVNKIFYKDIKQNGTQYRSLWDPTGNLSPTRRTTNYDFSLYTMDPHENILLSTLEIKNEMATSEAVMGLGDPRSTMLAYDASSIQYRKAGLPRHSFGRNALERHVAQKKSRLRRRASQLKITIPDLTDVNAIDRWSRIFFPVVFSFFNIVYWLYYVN
T1 sequence (P18507 40-467 isoform P18507-1 limits assumed): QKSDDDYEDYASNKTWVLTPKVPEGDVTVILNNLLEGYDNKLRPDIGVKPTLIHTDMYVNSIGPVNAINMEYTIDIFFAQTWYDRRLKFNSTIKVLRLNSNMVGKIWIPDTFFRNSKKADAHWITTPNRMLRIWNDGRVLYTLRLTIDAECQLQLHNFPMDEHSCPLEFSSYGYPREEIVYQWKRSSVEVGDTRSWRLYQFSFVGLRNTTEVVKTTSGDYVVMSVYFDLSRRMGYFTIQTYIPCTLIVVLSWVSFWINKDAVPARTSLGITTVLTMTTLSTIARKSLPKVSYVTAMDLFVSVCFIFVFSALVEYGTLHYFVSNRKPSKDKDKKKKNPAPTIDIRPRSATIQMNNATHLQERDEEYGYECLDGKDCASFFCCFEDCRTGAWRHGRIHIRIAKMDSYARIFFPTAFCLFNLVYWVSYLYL
Procedure: (§1) FIG. 1. […] Efficacy profile on GABAA receptors in oocyte two-electrode voltage clamp recordings. […] Peak currents were read and normalized to a maximal effective concentration of diazepam, where after data points were fitted to the empirical Hill equation by non-linear regression, n=3−14.
(§2) The assay reported here is performed to determine the in vitro functional potency as well as efficacy of PAMs at the major brain GABAA receptors subtypes. To establish this, a full concentration response profile was determined at a GABA concentration giving rise to 5-20% of the maximal GABA-evoked response from α1β2γ2, α2β2γ2, α3β2γ2 and α5β2γ2 receptors expressed in Xenopus laevis oocytes.
Collagenase defolliculated X. laevis oocytes were obtained from Ecocyte Bioscience. For injection, the oocytes were placed in a custom designed chamber in Mod. Barth's solution (90 mM NaCl, 1 mM KCl, 0.66 mM NaNO3, 2.4 mM NaHCO3, 0.74 mM CaCl2, 0.82 mM MgCl2, 100 μg/ml Gentamicin and 10 mM HEPES adjusted to pH 7.55) and injected with 25-50 nl of cRNA mixture using a Pico Pump (WPI). The cRNA mixture contain GABAAR subunits αx, β2, and γ2s in the ratio of 3:1:3 and in a total concentration of 0.5 μg/μl. Following injection, oocytes were maintained at 18° C. in Mod.
Electrophysiological responses from X. laevis oocytes were measured using the two-electrode voltage clamp technique. Single oocytes were placed in custom designed recording chambers that were continuously perfused with ≥2 ml/min OR2 (90 mM NaCl, 2.5 mM KCl, 2.5 mM CaCl2, 1 mM MgCl2 and 5 mM HEPES pH 7.4). […] The oocyte was impaled using manual micro manipulators and allowed to equilibrate at a holding potential of −50 mV to −80 mV for at least 1 min to ensure a maximal leak current of 100 nA before the experiment was initiated. […] Currents were amplified by a Geneclamp 500B amplifier (Axon), low-pass filtered at 20 Hz, digitized at 200 Hz by a Digidata 1322A (Axon) and then recorded as well as analyzed by a PC (Compaq Evo) using the pClamp9 suite (Axon). […]

[3] = tested on: Chronic Constriction Injury (CCI) in Rats; assay: Mechanical allodynia in chronic constriction injury (CCI) rats, acute and chronic dosing; conditions: for paw withdrawal threshold vs vehicle after chronic dosing: tested day 8
Procedure: Morphine was administered subcutaneously. […] The animals were tested after 14 days of surgery. **p<0.01,****p<0.0001 vs vehicle, Two-way ANOVA Fisher's LSD posttest, n=7−9.
Male SPRD rats (Taconic), 140-160 grams at surgery
The sciatic nerve was exposed at the mid-thigh level proximal to the sciatic trifurcation. Four chromic gut ligatures (4/0) (Ethicon, New Brunswick, N.J.) were tied loosely around the nerve, 1-2 mm apart, such that the vascular supply was not overtly compromised. The overlying muscle was closed in layers with 4/0 synthetic absorbable surgical suture.
Morphine-hydrochloride: 6 mg/kg free base weight, 1 ml/kg, subcutaneous administration. Pretreatment: 30 minutes
Morphine hydrochloride: 6 mg/kg free base weight, 1 ml/kg, subcutaneous administration once daily for 7 days.

[4] = target: T2, α3β2γ2 GABAA receptors expressed in Xenopus laevis oocytes (Homo sapiens, UniProt P18507+P34903); assay: Oocyte two-electrode voltage clamp electrophysiology, α3β2γ2; format: cell-based; conditions: GABA at EC10-20; normalized to diazepam
T2 construct: expressed in transfected cells; host or cells: Xenopus laevis oocytes injected with cRNA
T2 sequence (P34903 29-492): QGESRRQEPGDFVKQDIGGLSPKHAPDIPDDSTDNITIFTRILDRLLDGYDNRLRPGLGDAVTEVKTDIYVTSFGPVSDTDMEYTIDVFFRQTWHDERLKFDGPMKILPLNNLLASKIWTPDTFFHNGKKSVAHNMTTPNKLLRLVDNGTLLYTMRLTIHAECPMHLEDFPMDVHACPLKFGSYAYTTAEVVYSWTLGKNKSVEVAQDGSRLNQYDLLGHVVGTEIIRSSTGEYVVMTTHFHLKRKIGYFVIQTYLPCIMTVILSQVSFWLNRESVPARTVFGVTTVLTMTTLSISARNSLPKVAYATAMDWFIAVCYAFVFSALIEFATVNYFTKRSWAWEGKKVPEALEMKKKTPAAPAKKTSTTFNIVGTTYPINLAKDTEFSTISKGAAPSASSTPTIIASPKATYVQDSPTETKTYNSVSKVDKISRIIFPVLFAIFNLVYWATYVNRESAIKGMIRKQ
T2 sequence (P47870 25-512 partner limits assumed): as the sequence (P47870 25-512 partner limits assumed) above
T2 sequence (P18507 40-467 isoform P18507-1 limits assumed): as the sequence (P18507 40-467 isoform P18507-1 limits assumed) above
Procedure: as §1, §2
(§3) Collagenase defolliculated X. laevis oocytes were obtained from Ecocyte Bioscience. For injection, the oocytes were placed in a custom designed chamber in Mod. […]
(§4) Electrophysiological responses from X. laevis oocytes were measured using the two-electrode voltage clamp technique. […] Currents were amplified by a Geneclamp 500B amplifier (Axon), low-pass filtered at 20 Hz, digitized at 200 Hz by a Digidata 1322A (Axon) and then recorded as well as analyzed by a PC (Compaq Evo) using the pClamp9 suite (Axon). […]

[5] = tested on: Compound 48/80 induced scratching in male CD-1 mice; assay: Compound 48/80 induced scratching in male CD-1 mice
Procedure: Male CD-1 mice (22-30 g) (InterVivo Solutions, Canada)
All treatments were dosed at a dosing volume of 10 ml/kg.
Visual observation of bouts of scratching over 30 minutes. Visual assessments were performed blinded to treatment.

[6] = target: T3, α5β2γ2 GABAA receptors expressed in Xenopus laevis oocytes (Homo sapiens, UniProt P18507+P31644); assay: Oocyte two-electrode voltage clamp electrophysiology, α5β2γ2; format: cell-based; conditions: GABA at EC10-20; normalized to maximal effective concentration of diazepam
T3 construct: expressed in transfected cells; host or cells: Xenopus laevis oocytes injected with cRNA
T3 sequence (P31644 32-462): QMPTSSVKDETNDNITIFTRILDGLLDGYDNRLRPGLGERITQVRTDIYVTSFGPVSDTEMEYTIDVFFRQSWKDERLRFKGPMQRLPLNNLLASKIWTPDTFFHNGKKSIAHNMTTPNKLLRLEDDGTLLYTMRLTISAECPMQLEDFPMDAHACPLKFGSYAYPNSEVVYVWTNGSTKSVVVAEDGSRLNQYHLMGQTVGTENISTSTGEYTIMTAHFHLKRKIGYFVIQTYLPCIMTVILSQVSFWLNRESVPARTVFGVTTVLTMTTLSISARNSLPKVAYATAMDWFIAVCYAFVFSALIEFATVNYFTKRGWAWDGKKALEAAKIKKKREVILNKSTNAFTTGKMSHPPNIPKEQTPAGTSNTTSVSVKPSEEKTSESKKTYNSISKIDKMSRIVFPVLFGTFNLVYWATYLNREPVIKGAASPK
T3 sequence (P47870 25-512 partner limits assumed): as the sequence (P47870 25-512 partner limits assumed) above
T3 sequence (P18507 40-467 isoform P18507-1 limits assumed): as the sequence (P18507 40-467 isoform P18507-1 limits assumed) above
Procedure: as §1, §2, §3, §4

[7] = target: T4, α2β2γ2 GABAA receptors expressed in Xenopus laevis oocytes (Homo sapiens, UniProt P18507+P47869); assay: Oocyte two-electrode voltage clamp electrophysiology, α2β2γ2; format: cell-based; conditions: GABA at EC10-20; normalized to maximal effective concentration of diazepam
T4 construct: expressed in transfected cells; host or cells: Xenopus laevis oocytes injected with cRNA
T4 sequence (P47869 29-451): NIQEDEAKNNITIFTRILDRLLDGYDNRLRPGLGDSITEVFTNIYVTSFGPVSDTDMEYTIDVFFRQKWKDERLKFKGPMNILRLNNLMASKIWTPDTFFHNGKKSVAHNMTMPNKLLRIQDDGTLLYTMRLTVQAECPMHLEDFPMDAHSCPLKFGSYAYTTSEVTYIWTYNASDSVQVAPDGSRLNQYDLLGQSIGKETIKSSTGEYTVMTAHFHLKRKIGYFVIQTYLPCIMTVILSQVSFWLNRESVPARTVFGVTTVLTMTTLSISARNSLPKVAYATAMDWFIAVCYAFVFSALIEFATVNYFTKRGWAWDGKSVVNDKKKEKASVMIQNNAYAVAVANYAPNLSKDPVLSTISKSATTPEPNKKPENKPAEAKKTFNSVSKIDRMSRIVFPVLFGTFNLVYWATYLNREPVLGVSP
T4 sequence (P47870 25-512 partner limits assumed): as the sequence (P47870 25-512 partner limits assumed) above
T4 sequence (P18507 40-467 isoform P18507-1 limits assumed): as the sequence (P18507 40-467 isoform P18507-1 limits assumed) above
Procedure: as §1, §2, §3, §4

[8] = target: T5, recombinant GABA α3β2γ2 receptors (HEK-293 cell membranes) (Homo sapiens, UniProt P18507+P34903); assay: In vitro inhibition of 3H-flumazenil binding; conditions: 3H-flumazenil 1 nM, 40 min at 2° C., HEK-293 α3β2γ2 membranes
T5 construct: expressed in transfected cells; membranes
T5 sequence (P34903 29-492): as the sequence (P34903 29-492) above
T5 sequence (P47870 25-512 partner limits assumed): as the sequence (P47870 25-512 partner limits assumed) above
T5 sequence (P18507 40-475): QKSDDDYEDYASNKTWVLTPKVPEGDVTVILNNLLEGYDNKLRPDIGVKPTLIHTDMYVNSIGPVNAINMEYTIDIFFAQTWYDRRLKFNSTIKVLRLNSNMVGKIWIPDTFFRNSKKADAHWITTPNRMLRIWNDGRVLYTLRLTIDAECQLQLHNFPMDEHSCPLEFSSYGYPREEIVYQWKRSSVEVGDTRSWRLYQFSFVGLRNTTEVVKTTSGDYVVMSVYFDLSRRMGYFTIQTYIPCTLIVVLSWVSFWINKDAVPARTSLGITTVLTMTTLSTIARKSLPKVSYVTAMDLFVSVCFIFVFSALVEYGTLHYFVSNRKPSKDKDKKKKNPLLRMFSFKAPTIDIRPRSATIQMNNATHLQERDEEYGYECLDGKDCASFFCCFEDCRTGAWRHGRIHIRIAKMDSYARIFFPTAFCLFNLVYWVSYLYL
Text: Specific binding is total binding minus non-specific binding.

[9] = tested on: male Sprague Dawley (SD) rats; assay: Exploratory locomotor activity in male SD rats; format: in vivo, rat; conditions: up to 30 mg/kg per oral, 120 minutes prior, recorded 30 minutes
Procedure: FIG. 4. […] The activity of the rats was automatically registered for 30 minutes (TSE MoTil, Germany).
Male SD rats (180-250 grams, NTac:SD, Taconic, Denmark)
2 hrs post dosing, the rats were placed individually into novel standard home cages with reduced sawdust bedding. The cages were placed in frames equipped with photocells and beams allowing for automatic recording of locomotor behaviour (TSE MoTil, Germany). The exploratory locomotor activity was recorded for 30 minutes.

With `CN1C(=O)CN=C(c2ccccc2)c2cc(Cl)ccc21` [Diazepam] the “latency to fall off accelerating rotarod” value [1] was “significantly shortened the time to fall off the rod; also recorded: significantly shortened the latency to fall off”.
With `COc1ncc(-c2cccc(-n3cnc4cc(C(C)(C)O)ccc43)c2)c(OC)n1` [Compound 9, reference compound] the “modulation of GABA-mediated currents, α1β2γ2 receptor” value (shortened to “modulation of GABA-mediated currents”) [2] was “clearly negative”.
In the case of `CN1CC[C@]23c4c5ccc(O)c4O[C@H]2[C@@H](O)C=C[C@H]3[C@H]1C5.Cl` [Morphine hydrochloride, reference compound], the “paw withdrawal threshold vs vehicle after chronic dosing” value ([3]; 6 mg/kg subcutaneous once daily for 7 days, hydrochloride) is reported as “completely abolished the allodynic effect; also recorded: completely lost” and the “paw withdrawal threshold vs vehicle” value ([3]; acute, 6 mg/kg subcutaneous) is reported as “significantly enhanced paw withdrawal threshold”.
In the case of `COc1ncc(-c2cccc(-n3cnc4cc(C(C)(C)O)cnc43)c2)c(OC)n1` [Compound 1, 2-(3-(3-(2,4-dimethoxypyrimidin-5-yl)phenyl)-3H-imidazo[4,5-b]pyridin-6-yl)propan-2-ol], the “modulation of GABA-mediated currents” value [2] is reported as “no activation”, the “modulation of GABA-mediated currents” value ([2]; listed as compound 1) is reported as “close to zero” and the “paw withdrawal threshold vs vehicle after chronic dosing” value ([3]; 1, 3, 10 mg/kg per oral once daily for 7 days) is reported as “significant enhancement of the paw withdrawal threshold was maintained”. For the same compound, the “paw withdrawal threshold vs vehicle after chronic dosing” value ([3]; 1, 3, 10 mg/kg per oral once daily for 7 days, listed as compound 1) was “significant analgesic effect of all 3 doses were maintained”, the “paw withdrawal threshold vs vehicle” value ([3]; acute, 1 mg/kg per oral, 2 hrs and 3 hrs post treatment) was “significantly enhanced paw withdrawal threshold” and the “paw withdrawal threshold vs vehicle” value ([3]; acute, 3 mg/kg per oral, 2 hrs and 3 hrs post treatment) was “significantly enhanced paw withdrawal threshold”. The “paw withdrawal threshold vs vehicle” value ([3]; acute, 10 mg/kg per oral) was “just failed to reach statistical significance”, the “minimal effective dose, reversal of mechanical allodynia” value ([3]; acute, oral administration, CCI rats) was “less than or equal to 1 mg/kg” and the “potentiation of GABA-mediated currents in GABAA-α3 containing receptors” value [4] was “preferential potentiation”. For the same compound, the “bouts of scratching over 30 minutes vs vehicle” value ([5]; 3, 10, 30 mg/kg oral gavage, 30 min prior, significant at 10 and 30 mg/kg) was “significantly relieved itching; also recorded: dose dependently reduced”, the “minimal effective dose, bouts of scratching” value ([5]; oral gavage 30 min before compound 48/80) was 10 mg/kg and the “activation of GABAA-α5 containing receptors” value [6] was “less than 10%”. The “activation of GABAA-α2 containing receptors” value [7] was “less than 10%”, the CI (IV 0.5 mg/kg, rat) was 6.33 mL/min/kg and the “concentration after 8 h” value (dose 1 mg/kg (Table 3)) was “*AUC calculated 0-8 h, concentration after 8 h was 149 ng/ml”. For the same compound, the IC50 [8] was 38 nM, the Ki [8] was 15 nM and the exploratory locomotor activity [9] was “did not exert any effect; also recorded: did not affect exploratory locomotor activity”.
